Test system: P. falciparum 3D7 growth, pLDH absorbance
Assay: P. falciparum 3D7 growth inhibition, dose response, strain 3D7 (AID 2305)

First: Cc1noc(C)c1-c1cccc(CNCc2ccc(-c3cccc(-c4nc5ccccc5[nH]4)c3)cc2)c1
Second: CNc1ccc(CNCc2ccc(-c3ccc(-c4nc5c(C)cccc5[nH]4)cc3)cc2)cc1
The IC50 of the first is 1.8-fold higher: 570 nM for the first, 320 nM for the second. The second is the more potent here.

First: Cc1ccc([N+](=O)[O-])cc1NC(=O)N(CC(O)c1ccccc1)C1CCCCC1 (stereo not given)
Second: CCc1cccc(NC(=O)c2ccc(CN3CCCN(CC4CCCCC4)CC3)cc2)c1
The IC50 of the first is 1.8-fold higher: 730 nM for the first, 400 nM for the second. The second is the more potent here.

`COc1ccc2nccc([C@@H](O)CN3CCC(NC(=O)C(c4cc5ccccc5o4)N4CCC(Cc5ccccc5)CC4)CC3)c2c1` (stereo not given in full) and `CC(C)CNCc1cccc(-c2cccc(CN(C(=O)Nc3ccccc3)C3CCN(Cc4ccccc4)CC3)c2)c1` are within 1.5-fold of each other in IC50: 250 nM for the first, 370 nM for the second.

`Cc1ccccc1C1CCN(C2CCC(NC(=O)c3ccc(-c4ccccn4)s3)CC2)CC1` (stereo not given) and `O=C(NC1CCN(Cc2ccc(F)cc2)CC1)c1ccc(-c2cccc(C(F)(F)F)c2)s1` are within 1.5-fold of each other in IC50: 1180 nM for the first, 1360 nM for the second.

First: COc1ccc2c(NN=Cc3cccc([N+](=O)[O-])c3)ccnc2c1
Second: CC(=O)Nc1ccc(COc2ccc(Nc3ccnc4cc(-c5ccccn5)ccc34)cc2)cc1
The IC50 of the first is 4.2-fold higher: 850 nM for the first, 200 nM for the second. The second is the more potent here.

`Cc1cc(F)ccc1-c1nc(NCC(O)CNCCc2ccccc2)nc2c1ccc(=O)n2-c1c(F)cccc1F` (stereo not given) and `Cc1cc(N[C@@H](Cc2ccccc2)C(=O)NCc2cccc(F)c2)nc(NCCc2ccc(F)cc2)n1` are within 1.5-fold of each other in IC50: 540 nM for the first, 650 nM for the second.

Compared with `CC(C)(C)Nc1cc(C2CC2)nc(-c2ccccn2)n1`, `COc1ccccc1CNC(=O)c1cc(C2CC2)nc2c1cnn2C(C)C` is 1.5-fold higher in IC50: 680 nM for the first, 1020 nM for the second. The first is the more potent here.

`CN(C)c1nc2cc(-n3cnc4cc(-c5ccc(Cl)cc5)sc4c3=O)ccc2n1CCCN1CCCCC1` and `Cc1ccc(C)c(C2CCN(CCCCNC(=O)c3ccc(NC(=O)c4ccc(Cl)cc4)cc3)CC2)c1` are within 1.5-fold of each other in IC50: 840 nM for the first, 850 nM for the second.

Compared with `C/C=C/C=C/C1=NCCc2cc(OCCC)ccc21`, `CC1(C)N=C(N)N=C(N)N1OCCCOc1cccc(C(=O)O)c1` is 23-fold lower in IC50: 910 nM for the first, 40 nM for the second.

First: N#Cc1ccc(N2CCN(C(=O)c3cccc(-c4noc(C(F)(F)F)n4)c3)CC2)nc1
Second: O=C(Nc1ccc(C(F)(F)F)cc1)NC1CCN(c2ccnc3ccccc23)C1 (stereo not given)
The IC50 of the first is 2.4-fold higher: 220 nM for the first, 90 nM for the second. The second is the more potent here.

Compared with `Cc1cccc2[nH]c(-c3ccc(-c4ccc(CNCCCN5CCCC5=O)cc4)cc3)nc12`, `CC(=O)Nc1nc(C(=O)Nc2ccc(-c3ccc(-c4nc5c(C)cccc5[nH]4)cc3)cc2)cs1` is 3.5-fold lower in IC50: 630 nM for the first, 180 nM for the second. The second is the more potent here.

Going from `O=C(NOCCOc1ccccc1)c1ccccc1` to `Cc1cc(F)ccc1Nc1nc(N(C)c2ccccc2)c2cc(OCCCN(C)C)ccc2n1`, the IC50 rises from 320 nM to 720 nM (2.2-fold).

First: COc1cc(C(=O)NCc2nn(CCN3CCC(N4CCCC4)CC3)cc2-c2ccc(Cl)c(Cl)c2)cc(OC)c1OC
Second: Oc1ccc2[nH]c(-c3cccc(F)c3)nc2c1CN1CCC(N2CCCC2)CC1
The IC50 of the first is 4.3-fold higher: 770 nM for the first, 180 nM for the second. The second is the more potent here.

`COc1cccc(C(=O)C2CC2CN2CC=C(c3c(C)[nH]c4ccccc34)CC2)c1` (stereo not given) and `Cc1cc(=O)c2cc(Oc3cccc(OC(F)(F)F)c3)ccc2[nH]1` are within 1.5-fold of each other in IC50: 710 nM for the first, 860 nM for the second.

`Cc1nn(-c2ccnc3cc(Cl)ccc23)c(C)c1C(=O)NCc1cc(Cl)cc(Cl)c1` and `O=c1ccc(-c2nc3cc(Cl)c(Cl)cc3n2Cc2ccc(Cl)cc2Cl)c[nH]1` are within 1.5-fold of each other in IC50: 870 nM for the first, 1110 nM for the second.

`CC(C)CNCc1cccc(-c2cccc(CN(CCCN3CCN(C)CC3)C(=O)CCC3CCCC3)c2)c1` and `CN1CCC(NCc2cccc(-c3ccc(S(=O)(=O)NCc4ccccc4)cc3)c2)CC1` are within 1.5-fold of each other in IC50: 620 nM for the first, 690 nM for the second.

`CCCc1ccc(S(=O)(=O)NC2CCN(c3ccnc(Nc4ccc(OC)cc4)n3)C2)cc1` (stereo not given) and `COc1ccc2nccc(N3CCC(SCCNS(=O)(=O)c4ccc5c(c4)NC(=O)CS5)C3)c2n1` (stereo not given) are within 1.5-fold of each other in IC50: 1190 nM for the first, 1580 nM for the second.

First: NCCCNc1nc(Nc2cccc(C(N)=O)c2)c2c(=O)[nH]ccc2n1
Second: Cc1cc(Nc2cccc(Cl)c2)nc2ccc(NC(=O)c3ccc(=O)[nH]c3)cc12
The IC50 of the first is 1.7-fold lower: 590 nM for the first, 1000 nM for the second. The first is the more potent here.

`COc1cc(C2=NN(S(=O)(=O)c3c(C)cc(C)cc3C)CCCC2)ccc1Cl` and `COc1cc2nc(N(C)Cc3cccc(I)c3)nc(N)c2cc1OC` are within 1.5-fold of each other in IC50: 780 nM for the first, 860 nM for the second.

`CC(C)N1CCN(C(CN2CCN(CCCOc3ccccc3-c3ccccc3)CC2)c2ccc(F)cc2)CC1` (stereo not given) and `N#Cc1ccc(-c2ccc(C(=O)NC3CCN(CCN4CCC(c5cn(CCOC6CCCCO6)c6ccccc56)CC4)CC3)cc2)cc1` (stereo not given) are within 1.5-fold of each other in IC50: 790 nM for the first, 600 nM for the second.

`Cc1cc(=O)c(-c2ccc(Oc3ccc(F)cc3)cc2)c(C)[nH]1` and `Cc1cc2nc(-c3ccc(OCC(=O)NCc4cccc(C(F)(F)F)c4)cc3)[nH]c2cc1C` are within 1.5-fold of each other in IC50: 970 nM for the first, 990 nM for the second.

`CCCCc1cc(NC2CCN(C)CC2)nc(Nc2ccccc2)n1` and `O=C(Nc1ccc(Cl)cc1)c1cccc(S(=O)(=O)NC2CCN(CC3CCCCC3)C2)c1` (stereo not given) are within 1.5-fold of each other in IC50: 660 nM for the first, 910 nM for the second.

`Cc1nc(C)c(CC(=O)Nc2cccc(-c3cccc(-c4nc5c(C)cccc5[nH]4)c3)c2)s1` and `COc1ccc(C2C(C(=O)Nc3ccc4c(c3)OCO4)c3cc(OC)c(OC)cc3C(=O)N2C)cc1` (stereo not given) are within 1.5-fold of each other in IC50: 750 nM for the first, 1040 nM for the second.

Compared with `COCCN(CCOC)c1ncc(-c2ccsc2)c(-c2nc(C)c(C)s2)n1`, `COc1ccc2nc(NC3=NC4(c5ccccc5)N=C(Nc5nc6ccc(OC)cc6[nH]5)NC4(c4ccccc4)N3)[nH]c2c1` (stereo not given) is 4.2-fold lower in IC50: 840 nM for the first, 200 nM for the second.

`CC(C)(C)c1cc(C(=O)Nc2ccc(C(=N)N)cc2)c(O)c(C(C)(C)C)c1` and `CCN(CC)CCN(Cc1ccc(-c2ccc(C(F)(F)F)cc2)cc1)C(=O)Cn1c(SCc2ccc(F)cc2)cc(=O)c2ccccc21` are within 1.5-fold of each other in IC50: 760 nM for the first, 750 nM for the second.
